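Each compound was tested at five concentrations against cells in 96-well plates for 48 hours. Here, GI50 denotes the concentration required for 50% inhibition of growth. TGI: concentration producing complete growth inhibition.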
How the values were obtained:
Test in all cases: NCI tumour cell line growth inhibition, 48 h
HOP-62 NSCLC = system: HOP-62 NSCLC
HCT-116 colon = system: HCT-116 colon
OVCAR-4 ovarian = system: OVCAR-4 ovarian
UO-31 renal = system: UO-31 renal
RPMI-8226 leukemia = system: RPMI-8226 leukemia
SK-MEL-28 melanoma = system: SK-MEL-28 melanoma
SK-OV-3 ovarian = system: SK-OV-3 ovarian
SNB-75 CNS = system: SNB-75 CNS
UACC-62 melanoma = system: UACC-62 melanoma
SK-MEL-5 melanoma = system: SK-MEL-5 melanoma
EKVX NSCLC = system: EKVX NSCLC
CCRF-CEM leukemia = system: CCRF-CEM leukemia
HS 578T breast = system: HS 578T breast
A498 renal = system: A498 renal
NCI-H522 lung = system: NCI-H522 lung
ACHN renal = system: ACHN renal
BT-549 breast = system: BT-549 breast
MCF7 breast = system: MCF7 breast
SF-295 CNS = system: SF-295 CNS
MDA-MB-435 = system: MDA-MB-435
PC-3 prostate = system: PC-3 prostate
OVCAR-8 ovarian = system: OVCAR-8 ovarian
K-562 leukemia = system: K-562 leukemia
HCT-15 colon = system: HCT-15 colon
SK-MEL-2 melanoma = system: SK-MEL-2 melanoma
UACC-257 melanoma = system: UACC-257 melanoma
MDA-MB-468 breast = system: MDA-MB-468 breast
M14 melanoma = system: M14 melanoma
OVCAR-5 ovarian = system: OVCAR-5 ovarian
NCI-H23 lung = system: NCI-H23 lung

O=C(CSc1nnc(-c2ccc(-c3nc4ccc(Cl)cc4[nH]3)cc2)o1)Nc1ccc(Br)cc1
TGI (HOP-62 NSCLC): 3.96 µM | GI50 (HCT-116 colon): 3.22 µM | TGI (HCT-116 colon): 14.4 µM | GI50 (OVCAR-4 ovarian): 4.81 µM | TGI (OVCAR-4 ovarian): 19.3 µM | GI50 (UO-31 renal): 4.03 µM | TGI (UO-31 renal): 16.5 µM | GI50 (RPMI-8226 leukemia): 5.05 µM | TGI (RPMI-8226 leukemia): 26.3 µM | GI50 (SK-MEL-28 melanoma): 1.77 µM | TGI (SK-MEL-28 melanoma): 3.81 µM | GI50 (SK-OV-3 ovarian): 8.75 µM | TGI (SK-OV-3 ovarian): 27.5 µM | GI50 (SNB-75 CNS): 2.39 µM | TGI (SNB-75 CNS): 8.71 µM | GI50 (UACC-62 melanoma): 1.84 µM | TGI (UACC-62 melanoma): 4.61 µM | GI50 (SK-MEL-5 melanoma): 2.98 µM | TGI (SK-MEL-5 melanoma): 11.1 µM | GI50 (EKVX NSCLC): 3.33 µM | TGI (EKVX NSCLC): 14.6 µM | GI50 (CCRF-CEM leukemia): 2.31 µM | TGI (CCRF-CEM leukemia): 10.4 µM | GI50 (HS 578T breast): 2.62 µM | TGI (HS 578T breast): 9.96 µM | GI50 (A498 renal): 17.3 µM | TGI (A498 renal): 34.3 µM | GI50 (NCI-H522 lung): 1.84 µM | TGI (NCI-H522 lung): 5.01 µM | GI50 (ACHN renal): 2.4 µM | TGI (ACHN renal): 6.78 µM | GI50 (BT-549 breast): 2.95 µM | TGI (BT-549 breast): 8.55 µM | GI50 (MCF7 breast): 3.02 µM | TGI (MCF7 breast): 12.9 µM | GI50 (SF-295 CNS): 1.93 µM | TGI (SF-295 CNS): 4.99 µM | GI50 (MDA-MB-435): 3.84 µM | TGI (MDA-MB-435): 14.3 µM | GI50 (PC-3 prostate): 2.1 µM | TGI (PC-3 prostate): 5.78 µM | GI50 (OVCAR-8 ovarian): 2.17 µM | TGI (OVCAR-8 ovarian): 5.63 µM | GI50 (K-562 leukemia): 2.49 µM | TGI (K-562 leukemia): 11.8 µM | GI50 (HCT-15 colon): 2.94 µM | TGI (HCT-15 colon): 13.6 µM | GI50 (SK-MEL-2 melanoma): 2.98 µM | TGI (SK-MEL-2 melanoma): 11.1 µM | GI50 (UACC-257 melanoma): 2.97 µM | TGI (UACC-257 melanoma): 12.8 µM | GI50 (MDA-MB-468 breast): 2.66 µM | TGI (MDA-MB-468 breast): 9.97 µM | GI50 (M14 melanoma): 3.06 µM | TGI (M14 melanoma): 11.1 µM | GI50 (OVCAR-5 ovarian): 3.71 µM | TGI (OVCAR-5 ovarian): 17.5 µM | GI50 (NCI-H23 lung): 2 µM | TGI (NCI-H23 lung): 4.49 µM

— PubChem BioAssay (NCI)
